What all share (assay): ≥ marks a high value that may be exact or a test limit, other limits are often not marked, values filed in µg/mL are converted to µM
In experiment [1] the test system is Bacillus subtilis ATCC 6633.
Experiment [2] deals with Escherichia coli ATCC 25922.
For experiment [3], the system named is Staphylococcus aureus ATCC 25923.
Experiment [4] deals with Candida albicans ATCC 10231.
The subject of experiment [5] is Staphylococcus aureus USA 300.
The test system of experiment [6] is Pseudomonas aeruginosa PAO1.
The test system of experiment [7] is Klebsiella pneumoniae ATCC 13883.
Experiment [8] has as its system Escherichia coli.
The subject of experiment [9] is Candida albicans.
In experiment [10] the test system is Staphylococcus aureus.
The test system of experiment [11] is Staphylococcus aureus ATCC 33591.
Experiment [12] has as its system Pseudomonas aeruginosa ATCC 27853.
The test system of experiment [13] is Staphylococcus aureus ATCC 29213.
Experiment [14] concerns Enterococcus faecalis ATCC 29212.
Experiment [15] has as its system Acinetobacter baumannii.

Values after ≈ are worked out from the molar mass of the structure shown.

As to `C[C@H](N)C(=O)N[C@@H](CCCN=C(N)N)C(=O)N[C@@H](Cc1c[nH]c2ccccc12)C(=O)N[C@@H](CCCN=C(N)N)C(=O)N[C@@H](Cc1ccccc1)C(=O)N[C@@H](CCCCN)C(=O)N[C@@H](Cc1c[nH]c2ccccc12)C(=O)N[C@@H](C)C(=O)N[C@@H](CCCCN)C(=O)N[C@@H](CCCCN)C(=O)O` [ARWRFKWAKK], the minimum inhibitory concentration (MIC) in experiment [1] is ≥ 54.5 µM; in experiment [2] it was 54.5 µM (≈ 75 µg/mL); in experiment [3], 54.5 µM (≈ 75 µg/mL); in experiment [4], 54.5 µM (≈ 75 µg/mL).
Turning to `CC(C)C[C@H](NC(=O)[C@H](C)NC(=O)[C@H](CCCCN)NC(=O)CNC(=O)[C@H](CC(C)C)NC(=O)[C@H](C)NC(=O)[C@H](CCCCN)NC(=O)[C@H](CC(C)C)NC(=O)[C@H](C)NC(=O)[C@H](CO)NC(=O)[C@H](CC(C)C)NC(=O)[C@H](C)NC(=O)CN)C(N)=O` [GALSALKALGKAL], the MIC in experiment [5] was 25 µM (≈ 30.3 µg/mL); in experiment [2], > 25 µM; in experiment [6] it was > 25 µM; in experiment [7], 25 µM (≈ 30.3 µg/mL).
Regarding `CC(C)C[C@H](NC(=O)[C@H](CC(C)C)NC(=O)[C@H](CCCCN)NC(=O)CNC(=O)[C@H](CC(C)C)NC(=O)[C@H](C)NC(=O)[C@H](CCCCN)NC(=O)[C@H](CC(C)C)NC(=O)[C@H](C)NC(=O)[C@H](CO)NC(=O)[C@H](CC(C)C)NC(=O)[C@H](C)NC(=O)CN)C(N)=O` [GALSALKALGKLL], the MIC in experiment [5] was 25 µM (≈ 31.3 µg/mL); in experiment [2] it was 25 µM (≈ 31.3 µg/mL); in experiment [6] it was > 25 µM; in experiment [7], 25 µM (≈ 31.3 µg/mL).
`CC[C@H](C)[C@H](NC(=O)[C@H](Cc1cnc[nH]1)NC(=O)[C@H](CCCCN)NC(=O)[C@@H](NC(=O)[C@@H](NC(=O)[C@H](CC(=O)O)NC(=O)[C@H](CC(C)C)NC(=O)[C@H](Cc1ccccc1)NC(=O)CN)C(C)C)C(C)C)C(=O)NCC(=O)N[C@@H](CCCCN)C(=O)N[C@@H](C)C(=O)N[C@@H](C)C(=O)N[C@@H](CC(C)C)C(=O)NCC(=O)N[C@@H](C)C(=O)N[C@H](C(=O)N[C@H](C(=O)N[C@@H](Cc1cnc[nH]1)C(=O)N[C@@H](CC(C)C)C(=O)N[C@H](C(=O)N[C@@H](CC(N)=O)C(=O)N[C@@H](CCC(N)=O)C(N)=O)[C@@H](C)CC)[C@@H](C)O)C(C)C` [GFLDVVKHIGKAALGAVTHLINQ]: the MIC in experiment [8], in experiment [9] and in experiment [10] was 13.3 µM (≈ 32 µg/mL) in each case.
Take `CC[C@H](C)[C@H](NC(=O)[C@H](CCCN=C(N)N)NC(=O)[C@H](CC(C)C)NC(=O)CNC(=O)[C@H](CCCCN)NC(=O)CNC(=O)[C@@H]1CCCN1C(=O)[C@H](CC(C)C)NC(=O)[C@H](CC(N)=O)NC(=O)[C@@H]1CCCN1C(=O)[C@H](CO)NC(=O)[C@H](Cc1ccccc1)NC(=O)CN)C(=O)N[C@@H](CO)C(=O)O` [GFSPNLPGKGLRIS]: the minimum inhibitory concentration (MIC) in [9] was 34.7 µM (≈ 50 µg/mL); in experiment [10], > 69.3 µM.
With `CC(C)C[C@H](NC(=O)[C@H](CC(C)C)NC(=O)[C@H](CCCCN)NC(=O)CNC(=O)[C@H](CC(C)C)NC(=O)[C@H](CC(C)C)NC(=O)[C@H](CO)NC(=O)[C@H](C)NC(=O)[C@H](CC(C)C)NC(=O)[C@H](CO)NC(=O)[C@H](CC(C)C)NC(=O)[C@H](CC(C)C)NC(=O)CN)C(N)=O` [GLLSLASLLGKLL], the minimal inhibitory concentration (MIC) in experiment [5] worked out at 0.78 µM (≈ 1.01 µg/mL); in experiment [2], 2.16 µM (≈ 2.8 µg/mL); in experiment [6], 8.8 µM (≈ 11.4 µg/mL); in experiment [7] it was 3.1 µM (≈ 4.02 µg/mL).
Regarding `CC(C)C[C@H](NC(=O)[C@H](CC(C)C)NC(=O)[C@H](CCCCN)NC(=O)CNC(=O)[C@H](CC(C)C)NC(=O)[C@H](CO)NC(=O)[C@H](CC(C)C)NC(=O)[C@H](CO)NC(=O)[C@H](CC(C)C)NC(=O)[C@H](CC(C)C)NC(=O)CN)C(N)=O` [GLLSLSLGKLL], the MIC was 25 µM (≈ 27.8 µg/mL) in experiment [5], > 25 µM in [2], > 25 µM in experiment [6] and 25 µM (≈ 27.8 µg/mL) in [7].
For `C[C@H](NC(=O)[C@H](CCCCN)NC(=O)[C@H](Cc1ccc(O)cc1)NC(=O)[C@H](CCCCN)NC(=O)[C@H](CCCCN)NC(=O)[C@H](CCCCN)NC(=O)[C@H](Cc1ccc(O)cc1)NC(=O)[C@H](CCCN=C(N)N)NC(=O)[C@H](CCCCN)NC(=O)[C@@H](N)CCCCN)C(=O)N[C@@H](Cc1ccc(O)cc1)C(=O)N[C@@H](CCCCN)C(=O)N1CCC[C@H]1C(=O)N[C@@H](Cc1ccc(O)cc1)C(=O)N[C@@H](CCCCN)C(=O)N[C@@H](CCCCN)C(=O)N[C@@H](CCCCN)C(=O)N[C@@H](CCCCN)C(=O)N[C@@H](CCCCN)C(=O)N[C@@H](Cc1ccccc1)C(N)=O` [KKRYKKKYKAYKPYKKKKKF], the MIC in experiment [11] was ≥ 50 µM; in [2] it was 12.5 µM (≈ 33.5 µg/mL); in [3], 35.4 µM (≈ 94.7 µg/mL); in experiment [12] it was 100 µM (≈ 268 µg/mL).
Take `CC[C@H](C)[C@H](NC(=O)[C@H](CCC(N)=O)NC(=O)[C@H](CC(C)C)NC(=O)[C@H](CCC(N)=O)NC(=O)[C@@H](NC(=O)[C@H](CCCCN)NC(=O)[C@H](Cc1ccccc1)NC(=O)[C@H](Cc1c[nH]c2ccccc12)NC(=O)[C@@H](N)CCCCN)[C@@H](C)CC)C(=O)N[C@@H](CCCCN)C(=O)N[C@@H](CCCCN)C(=O)N[C@@H](Cc1c[nH]c2ccccc12)C(=O)N[C@@H](CCCCN)C(=O)N[C@@H](CC(N)=O)C(=O)N[C@@H](CCCCN)C(=O)N[C@@H](CCCCN)C(N)=O` [KWFKIQLQIKKWKNKK]: the MIC in [11] is ≥ 32 µM; in [2], 32 µM (≈ 68.6 µg/mL).
As for `CC(C)C[C@H](NC(=O)[C@H](CC(C)C)NC(=O)[C@H](CCCNC(=N)N)NC(=O)[C@H](CCCCN)NC(=O)[C@H](CCCNC(=N)N)NC(=O)[C@H](CC(C)C)NC(=O)[C@H](CCCCN)NC(=O)[C@H](CCCNC(=N)N)NC(=O)[C@H](CC(C)C)NC(=O)[C@H](CC(C)C)NC(=O)[C@H](CC(C)C)NC(=O)[C@H](CCCNC(=N)N)NC(=O)[C@H](CCCCN)NC(=O)[C@H](CCCNC(=N)N)NC(=O)[C@H](CC(C)C)NC(=O)[C@H](CCCCN)NC(=O)[C@H](CCCNC(=N)N)NC(=O)[C@@H](N)CC(C)C)C(=O)O` [LRKLRKRLLLRKLRKRLL], the MIC in experiment [13] was > 13.5 µM; in [2] it was 5.06 µM (≈ 12 µg/mL); in experiment [14] it was > 13.5 µM; in [15], 13.5 µM (≈ 32 µg/mL); in experiment [12] it was 6.74 µM (≈ 16 µg/mL).
Take `CC[C@H](C)[C@H](NC(=O)[C@H](CCCCN)NC(=O)[C@@H](NC(=O)[C@H](CCC(N)=O)NC(=O)[C@@H](N)CCCN=C(N)N)[C@@H](C)CC)C(=O)N[C@@H](Cc1c[nH]c2ccccc12)C(=O)N[C@@H](Cc1ccccc1)C(=O)N[C@@H](CCC(N)=O)C(=O)N[C@@H](CC(N)=O)C(=O)N[C@@H](CCCN=C(N)N)C(=O)N[C@@H](CCCN=C(N)N)C(=O)N[C@@H](CC(C)C)C(=O)N[C@@H](CCCCN)C(=O)N[C@@H](Cc1c[nH]c2ccccc12)C(=O)N[C@@H](CCCCN)C(=O)N[C@@H](CCCCN)C(N)=O` [RQIKIWFQNRRLKWKK]: the minimum inhibitory concentration (MIC) in experiment [11] is ≥ 64 µM; in experiment [2] it was 32 µM (≈ 71.3 µg/mL).
For `CC[C@H](C)[C@H](NC(=O)[C@H](CCCCN)NC(=O)[C@H](CS)NC(=O)[C@H](C)NC(=O)[C@@H](NC(=O)[C@H](Cc1ccccc1)NC(=O)CNC(=O)[C@H](CC(C)C)NC(=O)CNC(=O)[C@@H](NC(=O)[C@H](CCCCN)NC(=O)CNC(=O)[C@H](CC(C)C)NC(=O)[C@H](CC(N)=O)NC(=O)[C@H](CCCN=C(N)N)NC(=O)[C@H](CC(C)C)NC(=O)[C@@H](NC(=O)[C@H](CO)NC(=O)[C@H](CC(C)C)NC(=O)[C@H](CCSC)NC(=O)[C@@H](N)CO)C(C)C)C(C)C)C(C)C)C(=O)N[C@@H](CC(N)=O)C(=O)N[C@@H](CCCCN)C(=O)N[C@@H](CCC(N)=O)C(=O)N[C@@H](CS)C(=O)O` [SMLSVLRNLGKVGLGFVACKINKQC], the MIC came out at 20 µM (≈ 53.6 µg/mL) in experiment [8], 200 µM (≈ 536 µg/mL) in experiment [9] and 100 µM (≈ 268 µg/mL) in experiment [10].

As usually defined, the MIC is the lowest concentration found to suppress growth. A higher MIC goes with weaker potency.

Values taken from DBAASP.
